How the values were obtained:
[1] = Plasma glucose enrichment during labeled glucose infusion in rats; type: in vivo
Description: Trimethylsilyl derivatives of nucleosides were synthesized by incubation of lyophilized hydrolysates with BSTFA:pyridine (4:1) at 100° C. for 1 hour. Samples were analyzed by GC-MS (DB-17 HT column, J&W Scientific, Folsom Calif.; HP 5890 GC and 5971MS, Hewlett Packard, Palo Alto, Calif.). Abundances of ions at mass to charge ratio (m/z) 467 and 469 were quantified under selected ion recording mode for deoxyadenosine (dA); and m/z 555 and 557 were monitored for deoxyguanosine (dG). Under the derivatization and GC-MS conditions employed, the purines (dA and dG) gave larger peaks (FIG. 3) than the pyrimidines, resulting in greater sensitivity and a higher signal-to-noise ratio. To measure the enrichment of glucose, plasma or culture media were deproteinized with perchloric acid and passed through anion and cation exchange columns (Neese et al., 1995, J. Biol. Chem. 270:14452-14463). The glucose penta-acetate derivative was formed by incubation with acetic anhydride in pyridine. GC-MS analysis was performed as described previously (Neese et al., 1995, J. Biol. Chem […]), monitoring m/z 331 and 333 under selected ion recording.
Four rats (approximately 250 g) were infused with labeled glucose. […] DNA was extracted from cell preparations, then hydrolyzed to nucleosides and analyzed by GC-MS (FIG. 2). […]

[2] = human, in vivo
Description: (§1) Trimethylsilyl derivatives of nucleosides were synthesized by incubation of lyophilized hydrolysates with BSTFA:pyridine (4:1) at 100° C. for 1 hour. Samples were analyzed by GC-MS (DB-17 HT column, J&W Scientific, Folsom Calif.; HP 5890 GC and 5971MS, Hewlett Packard, Palo Alto, Calif.). Abundances of ions at mass to charge ratio (m/z) 467 and 469 were quantified under selected ion recording mode for deoxyadenosine (dA); and m/z 555 and 557 were monitored for deoxyguanosine (dG). Under the derivatization and GC-MS conditions employed, the purines (dA and dG) gave larger peaks (FIG. 3) than the pyrimidines, resulting in greater sensitivity and a higher signal-to-noise ratio. […]
One subject was a healthy normal volunteer and the other three were HIV-seropositive men, who were participating in lymphocyte kinetic studies (blood CD4 T cell counts in the range 215-377/mm^3). […] Granulocyte DNA was extracted, hydrolyzed to nucleosides and analyzed by GC-MS, as described in Section 6.1.2, supra. […]
All were clinically stable at the time of investigation. […] Granulocytes were isolated and dA enrichment measured from DNA. […]
48-hr constant intravenous infusions of labeled glucose were performed to ensure a representative time sample of T cell kinetics. Enrichments of plasma glucose were measured every 12 hr during the infusion. […]

[3] = tested on: HIV-1; conditions: Patient #6, previous protease inhibitor
[4] = tested on: hepatocyte cell line, HepG2; assay: Label incorporation into dA of DNA in cultured HepG2 cells (GC-MS, cell counting); type: cell-based; conditions: HepG2, unlabeled glycerol
Description: (§2) DNA was prepared from cells or tissues by phenol-chloroform-isoamyl alcohol extraction of cell suspensions or tissue homogenates. Yield and purity were confirmed by optical density. After heat denaturation, DNA was hydrolyzed enzymatically to deoxyribonucleosides by sequential digestion with nuclease P1, phosphodiesterase, and alkaline phosphatase, as described by Crain et al. (Crain, 1990, Methods Enzymol. 193:782-790). Nucleoside yield and purity were confirmed by HPLC using a C-18 column and water-methanol gradient (Shigenaga et al., 1994, Methods Enzymol. 234:16-33).
as §1, with “(dG).” for “(dG). Under the derivatization and GC-MS conditions employed, the purines (dA and dG) gave larger peaks (FIG. 3) than the pyrimidines, resulting in greater sensitivity and a higher signal-to-noise ratio.”
(§3) Two cell lines were used: a hepatocyte cell line, HepG2, and a lymphocytic cell line, H9, which is a CD4^+ T cell line. […] In both cases the number of cells present was measured by counting an aliquot on a Coulter ZM0901 cell counter. […]

[5] = tested on: lymphocytic cell line, H9; assay: Label incorporation into dA of DNA in cultured H9 cells (GC-MS, cell counting); type: cell-based; conditions: H9, unlabeled glycerol
Description: as §2
as §1, with “(dG).” for “(dG). Under the derivatization and GC-MS conditions employed, the purines (dA and dG) gave larger peaks (FIG. 3) than the pyrimidines, resulting in greater sensitivity and a higher signal-to-noise ratio.”
as §3

In the case of [2H]C([2H])(O)[C@H]1OC(O)[C@H](O)[C@@H](O)[C@@H]1O (stereo partly drawn) [[6,6-^2H2] glucose], the “Mean glucose enrichment for the 24 hr infusion period” value ([1]; rat, in vivo) is reported as 9.2±0.6%, the “Plasma glucose enrichment at sacrifice” value ([1]; rats (n=4), iv infusion approximately 24 hours, fasting) is reported as 13.2±0.9% and the “Plasma enrichment after discontinuing the intravenous infusion, % of steady-state values” [2] is reported as less than 10%.

With CC(C)(C)NC(=O)[C@@H]1CN(Cc2cccnc2)CCN1C[C@@H](O)C[C@@H](Cc1ccccc1)C(=O)N[C@H]1c2ccccc2C[C@H]1O [indinavir] the “viral load at failure” value [3] was 28,000.

For OCC(O)CO [unlabeled glycerol, glycerol], the “Reduction of incorporation into dA from 10% [6,6-^2H2] glucose” value [4] was 7% and the “Effect on labeling from 10% [6,6-^2H2] glucose” value [5] was “did not affect labeling”.
